Consider twelve molecules from patent publication US9365862B1, “Herbicide resistant sorghum mutants” (NUtech Ventures, priority 2011, dated 2016).

Each structure is given as a SMILES string.

Holding throughout (experiment): Greenhouse bioassay for resistance to ALS-inhibiting herbicides (dry matter, visual injury)
Format in all cases: in vivo, Shattercane (Sorghum bicolor subsp. X drummondii)

Assay [1] concerns shattercane biotype P2-205 (Mutant A). As to conditions: dry matter and visual ratings. The procedure:
(§1) The bioassay experiment was conducted in a greenhouse on the East Campus of the University of Nebraska-Lincoln, in Lincoln, Nebr. The experimental design was a randomized complete block. Shattercane seed was planted in 0.9 L square plastic pots in Miracle-Gro® Moisture Control® Potting Mix (The Scotts Company LLC, Marysville, Ohio). The photoperiod was 15/9 light/dark with supplemental light provided by sodium halide lamps. Greenhouse temperatures were maintained at 24±2 C (day) and 19±2 C (night). Shattercane was thinned to 1 plant per pot when it reached the 2 leaf stage. Herbicide treatments (Table 1 in Appendix I) were applied when the shattercane reached the V4 growth stage and was approximately 12 cm tall. Individual plants ranged from growth stage V3 to V5, and in height from 7 to 19 cm. At least one tiller had formed on most plants by the time of application. Herbicides were applied using an 8001 even flat fan nozzle at 207 kPa in a single-tip track sprayer located in the greenhouse facility. The application rate was 187 l/ha, and treatment solutions were prepared in distilled water. Visual injury ratings were made 7, 14 and 21 days after treatment on a scale of 0 to 100, where 0 represents no injury and 100 represents plant death. At 21 DAT, plants were harvested at the soil surface, dried for 48 h at 70 C, and weighed to determine dry matter. Dry matter data for each experimental unit was divided by the average dry matter of the untreated control plants of that biotype and multiplied by 100 to determine relative percent biomass to the untreated control. Dry matter data for each experimental unit was also divided by the average dry matter data of the glyphosate-treated plants of that biotype to determine growth in the three weeks after herbicide application. Data were subjected to ANOVA using Proc GLM of SAS 9.1 (SAS Institute Inc., Cary, N.C.). The Run by Herbicide by Population interaction was significant for each variable, so runs were analyzed separately. The Herbicide by Population interaction was also significant for each run and each variable, so data were analyzed by herbicide to describe differences among the populations. Treatment means were separated using Duncan's Multiple Range test.

Assay [2] concerns shattercane biotype P8-30 (Mutant C). Conditions: for resistance of the biotype to the herbicide: biotype P8-30 (Mutant C), relative to the wild-type, dry matter and visual ratings; for growth reduction: biotype P8-30, growth in the three weeks after herbicide application. The procedure: as §1
For assay [3], the system named is shattercane biotype P9-102 (Mutant B). As to conditions: dry matter and visual ratings. The method, then:
as §1

The subject of assay [4] is shattercane biotype 5-4Farm (Mutant D). As to conditions: plants harvested 21 DAT. The method, then: as §1
The next assay relates to wild type shattercane. As to conditions: wild type biotype, plants harvested 21 DAT. The procedure: as §1

In the case of `COc1nc(C)nc(NC(=O)NS(=O)(=O)c2ccccc2Cl)n1` [chlorsulfuron], the “resistance of the biotype to the herbicide” value (“resistance of the biotype” below) in assay [1] is “resistant”; in assay [1] (listed as Chlorsulfuron), “resistance”; in assay [2] it was “resistance”; in assay [3] it was “resistance”.

For `COCc1cnc(C2=NC(C)(C(C)C)C(=O)N2)c(C(=O)O)c1` (stereo not drawn) [imazamox], the “resistance of the biotype” value in assay [1] is “partially resistant”; in assay [1] (listed as Imazamox) it was “resistance”; in assay [2] it was “resistance”.

Regarding `CCS(=O)(=O)c1cccnc1S(=O)(=O)NC(=O)Nc1nc(OC)cc(OC)n1` [rimsulfuron], in assay [2], the “resistance of the biotype” value is listed as “partial resistance” and the growth reduction is reported as about 84%. For the same molecule, the “resistance of the biotype” value in assay [2] (listed as Rimsulfuron) is listed as “resistance”.

In the case of `COc1cc(OC)nc(Oc2cccc(Oc3nc(OC)cc(OC)n3)c2C(=O)O)n1` [bispyribac], in assay [2], the “resistance of the biotype” value is “partial resistance” and the growth reduction result is “approximately 65%”. Also, the “resistance of the biotype” value in assay [2] (listed as Bispyribac) is “resistance”.

As for `COc1nn(C(=O)NS(=O)(=O)c2c(C(=O)O)csc2C)c(=O)n1C` [thiencarbazone], the “resistance of the biotype” value in assay [1] is listed as “partially resistant”; in assay [1] (listed as Thiencarbazone) it was “resistance”; in assay [2] it was “resistance”; in assay [3] it was “partially resistant”; in assay [3] (listed as Thiencarbazone) it was “resistance”.

Turning to `CC(C)C1(C)N=C(c2nc3ccccc3cc2C(=O)O)NC1=O` (stereo not drawn) [Imazaquin], the “resistance of the biotype” value in assay [2] is “resistance”.

For `CCCOc1nn(C(=O)[N-]S(=O)(=O)c2ccccc2C(=O)OC)c(=O)n1C.[Na+]` [propoxycarbazone], the “resistance of the biotype” value in assay [1] is reported as “resistant”; in assay [1] (listed as Propoxycarbazone), “resistance”; in assay [2], “resistance”; in assay [3] it was “resistant”; in assay [3] (listed as Propoxycarbazone), “resistance”.

Take `COc1cc(OC)nc(NC(=O)NS(=O)(=O)c2ncccc2C(=O)N(C)C)n1` [nicosulfuron]: the results for the “resistance of the biotype” value in assay [2] and in assay [3] were “resistance” and “resistant”, respectively.

With `O=C(Nc1nc(OC(F)F)cc(OC(F)F)n1)NS(=O)(=O)c1ccccc1C(=O)O` [primisulfuron], the “resistance of the biotype” value is “partially resistant” in assay [1]; “resistance” in assay [1] (listed as Primisulfuron); “resistance” in assay [2]; “partially resistant” in assay [3]; “resistance” in assay [3] (listed as Primisulfuron).

On to `COc1cc(OC)nc(NC(=O)NS(=O)(=O)c2cc(NC=O)ccc2C(=O)N(C)C)n1` [foramsulfuron], for which the “resistance of the biotype” value was “partially resistant” in assay [1]; “resistance” in assay [1] (listed as Foramsulfuron); “resistance” in assay [2]; “resistant” in assay [3]; “resistance” in assay [3] (listed as Foramsulfuron).

As for `CCc1cnc(C2=NC(C)(C(C)C)C(=O)N2)c(C(=O)O)c1` (stereo not drawn) [Imazethapyr], the “resistance of the biotype” value in assay [2] is on record as “resistance”.

Consider `COc1cnc(OC)n2nc(NS(=O)(=O)c3c(OCC(F)F)cccc3C(F)(F)F)nc12` [penoxsulam], for which the “effect on dry matter” value (in assay [4]; with wild type shattercane) was “did not reduce dry matter” in each case.
